# Test results published in ChEMBL document CHEMBL1201862, “PubChem BioAssay data set” (2004).
#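 Following 48 hours of exposure in 96-well plates, responses at five concentrations were used to interpolate endpoints linearly. GI50 marks 50% less growth.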 Calls of active or inactive are those of the source. Cut-off read from the data, not from the text of the source: active = GI50 up to about 1.1 µM and inactive = higher.
# Columns and labels:
# Assay in all cases: growth of human tumour cells (NCI), 48 h
# CAKI-1 = test system: CAKI-1
# IGROV-1 = test system: IGROV-1
# LOX IMVI = test system: LOX IMVI
# MCF7 = test system: MCF7
# MDA-MB-435 = test system: MDA-MB-435
# NCI-H23 = test system: NCI-H23
# NCI/ADR-RES = test system: NCI/ADR-RES
# PC-3 = test system: PC-3
# SR = test system: SR
# TK-10 = test system: TK-10
# UACC-257 = test system: UACC-257
# DLD-1 = test system: DLD-1
# DMS-114 = test system: DMS-114
# DMS-273 = test system: DMS-273
# KM-20L2 = test system: KM-20L2
# M19-MEL = test system: M19-MEL
# RXF 393 = test system: RXF 393
# XF498 = test system: XF498
# SNB-78 = test system: SNB-78
# Hs-578T = test system: Hs-578T
Compound,GI50 (CAKI-1),GI50 (IGROV-1),GI50 (LOX IMVI),GI50 (MCF7),GI50 (MDA-MB-435),GI50 (NCI-H23),GI50 (NCI/ADR-RES),GI50 (PC-3),GI50 (SR),GI50 (TK-10),GI50 (UACC-257),GI50 (DLD-1),GI50 (DMS-114),GI50 (DMS-273),GI50 (KM-20L2),GI50 (M19-MEL),GI50 (RXF 393),GI50 (XF498),GI50 (SNB-78),GI50 (Hs-578T)
O[C@@]12Cc3c([nH]c4ccccc34)[C@@H]3Oc4cccc5c4[C@@]31CCN(CC1CC1)[C@@H]2C5,19.2 µM (inactive),24.9 µM (inactive),18.9 µM (inactive),17.5 µM (inactive),15.7 µM (inactive),30.7 µM (inactive),33.4 µM (inactive),17 µM (inactive),34 µM (inactive),19.2 µM (inactive),24.9 µM (inactive),–,–,–,–,–,–,–,–,–
CCNc1cnc2c(n1)c(=O)n(C)c(=O)n2C,> 100 µM (inactive),> 100 µM (inactive),–,–,–,> 100 µM (inactive),–,–,–,> 100 µM (inactive),> 100 µM (inactive),> 100 µM (inactive),> 100 µM (inactive),> 100 µM (inactive),> 100 µM (inactive),> 100 µM (inactive),84.9 µM (inactive),> 100 µM (inactive),–,–
c1ccc(CCn2cncn2)cc1,–,> 100 µM (inactive),–,–,–,> 100 µM (inactive),–,–,> 100 µM (inactive),> 100 µM (inactive),> 100 µM (inactive),> 100 µM (inactive),> 100 µM (inactive),> 100 µM (inactive),> 100 µM (inactive),> 100 µM (inactive),–,–,> 100 µM (inactive),–
CNS(=O)(=O)NN(C)S(=O)(=O)c1ccc(F)cc1,> 100 µM (inactive),> 100 µM (inactive),90.2 µM (inactive),–,–,> 100 µM (inactive),–,–,–,> 100 µM (inactive),> 100 µM (inactive),> 100 µM (inactive),> 100 µM (inactive),> 100 µM (inactive),> 100 µM (inactive),–,> 100 µM (inactive),> 100 µM (inactive),–,–
COc1cc2c(cc1OC)-c1cc3ccccc3c[n+]1CC2,> 100 µM (inactive),> 100 µM (inactive),> 100 µM (inactive),70.3 µM (inactive),> 100 µM (inactive),> 100 µM (inactive),> 100 µM (inactive),> 100 µM (inactive),68.2 µM (inactive),> 100 µM (inactive),89.5 µM (inactive),–,–,–,–,–,> 100 µM (inactive),–,–,23.8 µM (inactive)
CCCCCCCCCCCCCCCCCc1cc(Cl)nc(Cl)n1,–,> 100 µM (inactive),> 100 µM (inactive),36.6 µM (inactive),> 100 µM (inactive),> 100 µM (inactive),> 100 µM (inactive),> 100 µM (inactive),> 100 µM (inactive),> 100 µM (inactive),> 100 µM (inactive),–,–,–,–,–,> 100 µM (inactive),–,–,> 100 µM (inactive)
O=C(Nc1cccc(O)c1)C(=O)C(C(=O)c1ccccc1F)C1OC(=O)c2ccccc21 (centres undefined),32.9 µM (inactive),38.7 µM (inactive),22.9 µM (inactive),–,–,27 µM (inactive),–,–,24.9 µM (inactive),58.9 µM (inactive),84.5 µM (inactive),34.2 µM (inactive),13.8 µM (inactive),24.2 µM (inactive),25.7 µM (inactive),18.1 µM (inactive),18.5 µM (inactive),–,24.2 µM (inactive),–
Nc1ccc(Sc2nnc(N)s2)cc1,–,> 100 µM (inactive),–,> 100 µM (inactive),> 100 µM (inactive),–,> 100 µM (inactive),> 100 µM (inactive),> 100 µM (inactive),> 100 µM (inactive),> 100 µM (inactive),–,–,–,–,–,–,–,–,> 100 µM (inactive)
CC1=NC=C(O)c2ccccc2O1,–,> 100 µM (inactive),> 100 µM (inactive),–,–,> 100 µM (inactive),–,–,–,> 100 µM (inactive),> 100 µM (inactive),> 100 µM (inactive),> 100 µM (inactive),> 100 µM (inactive),> 100 µM (inactive),> 100 µM (inactive),> 100 µM (inactive),–,> 100 µM (inactive),–
CSc1cc(-c2cc3ccccc3o2)oc(=O)c1C#N,8.13 µM (inactive),7.4 µM (inactive),> 100 µM (inactive),–,–,> 100 µM (inactive),–,–,15.5 µM (inactive),21.8 µM (inactive),> 100 µM (inactive),> 100 µM (inactive),7.43 µM (inactive),> 100 µM (inactive),> 100 µM (inactive),–,71.4 µM (inactive),5.83 µM (inactive),88.1 µM (inactive),–
CCN(CC)/[N+]([O-])=N/OC,–,> 100 µM (inactive),> 100 µM (inactive),–,–,> 100 µM (inactive),–,–,> 100 µM (inactive),> 100 µM (inactive),> 100 µM (inactive),–,–,> 100 µM (inactive),> 100 µM (inactive),> 100 µM (inactive),> 100 µM (inactive),> 100 µM (inactive),> 100 µM (inactive),–
CN(CCCNc1ccc2ncn3c4ccccc4c(=O)c1c23)CCCN1C(=O)c2cccc3cc([N+](=O)[O-])cc(c23)C1=O,0.029 µM (active),0.00948 µM (active),0.00771 µM (active),0.00541 µM (active),0.0219 µM (active),0.0208 µM (active),0.0376 µM (active),1.14 µM (inactive),0.001 µM (active),0.00221 µM (active),0.0867 µM (active),–,–,–,–,–,0.0267 µM (active),–,–,0.0879 µM (active)
COC(=O)C1=C(C(=O)OC)C2(C)C=CC1O2 (centres undefined),–,19.4 µM (inactive),16.7 µM (inactive),31.5 µM (inactive),19.1 µM (inactive),17.8 µM (inactive),19.6 µM (inactive),21.4 µM (inactive),–,2.49 µM (inactive),15.9 µM (inactive),–,–,–,–,–,20.9 µM (inactive),–,–,26.4 µM (inactive)
CNC1=C(C)C(=O)C2=C(C1=O)C(COC(N)=O)C1(OC)C3NC3CN21 (centres undefined),0.0653 µM (active),3.53 µM (inactive),0.152 µM (active),0.107 µM (active),1.6 µM (inactive),0.105 µM (active),–,2.94 µM (inactive),0.0462 µM (active),3.1 µM (inactive),0.951 µM (active),–,–,–,–,–,–,–,–,2.49 µM (inactive)
C/C(=N\NS(=O)(=O)c1ccccc1)c1ccccc1,> 100 µM (inactive),> 100 µM (inactive),> 100 µM (inactive),> 94 µM (inactive),–,> 100 µM (inactive),> 100 µM (inactive),–,–,–,> 100 µM (inactive),> 100 µM (inactive),> 100 µM (inactive),> 100 µM (inactive),> 100 µM (inactive),–,> 100 µM (inactive),> 100 µM (inactive),> 100 µM (inactive),–
Oc1ccc2ccccc2c1/N=N/c1cccc2ccccc12,> 100 µM (inactive),49.9 µM (inactive),–,> 100 µM (inactive),> 100 µM (inactive),> 100 µM (inactive),> 100 µM (inactive),> 100 µM (inactive),> 100 µM (inactive),> 100 µM (inactive),> 100 µM (inactive),–,–,–,–,–,65.3 µM (inactive),–,–,21.1 µM (inactive)
O=C1Sc2ccccc2/C1=N/Nc1ccccc1[N+](=O)[O-],77.3 µM (inactive),> 100 µM (inactive),> 100 µM (inactive),17 µM (inactive),> 100 µM (inactive),> 100 µM (inactive),–,> 100 µM (inactive),> 100 µM (inactive),> 100 µM (inactive),> 100 µM (inactive),–,–,–,–,–,–,–,–,36.1 µM (inactive)
O=C1C(=O)c2ccccc2C=C1[N+](=O)[O-],87.9 µM (inactive),13.8 µM (inactive),25.8 µM (inactive),22.9 µM (inactive),16.8 µM (inactive),34.2 µM (inactive),23 µM (inactive),48.2 µM (inactive),29.4 µM (inactive),> 100 µM (inactive),25.2 µM (inactive),–,–,–,–,–,24.4 µM (inactive),–,–,57.1 µM (inactive)
O=C1CNc2cc(N3CCCCC3)ccc2N1,–,13.9 µM (inactive),–,> 100 µM (inactive),60.4 µM (inactive),> 100 µM (inactive),> 100 µM (inactive),> 100 µM (inactive),74.6 µM (inactive),> 100 µM (inactive),> 100 µM (inactive),–,–,–,–,–,–,–,–,4.43 µM (inactive)
COc1cc(O)cc(/C=C/c2ccc(O)cc2)c1,33.7 µM (inactive),53.3 µM (inactive),–,49.2 µM (inactive),31.3 µM (inactive),26.7 µM (inactive),38.9 µM (inactive),18 µM (inactive),42 µM (inactive),29.4 µM (inactive),40.8 µM (inactive),–,–,–,–,–,72.8 µM (inactive),–,–,44.7 µM (inactive)
C=C(C)C(=O)O[C@H]1CC2=C[C@@H](C[C@@]3(C)O[C@@H]3[C@H]3OC(=O)C(=C)[C@@H]31)OC2=O [ELEPHANTOPIN],1.86 µM (inactive),4.65 µM (inactive),0.31 µM (active),1.14 µM (inactive),–,1.87 µM (inactive),1.14 µM (inactive),–,–,–,1.85 µM (inactive),0.897 µM (active),4.47 µM (inactive),2.79 µM (inactive),4.69 µM (inactive),2.49 µM (inactive),0.369 µM (active),–,2.09 µM (inactive),–
COc1cc(O)c2c(c1)C(=O)c1cc(C)cc(O)c1C2=O [PHYSCION],> 100 µM (inactive),> 100 µM (inactive),> 100 µM (inactive),–,–,> 100 µM (inactive),–,–,> 100 µM (inactive),–,> 100 µM (inactive),> 100 µM (inactive),> 100 µM (inactive),–,> 100 µM (inactive),> 100 µM (inactive),–,–,> 100 µM (inactive),–
